Patent US6156700A, “3-(1,2-Benzisothiazol- and isoxazol-5-yl)-2,4(1H,3H)-pyrimidinedione or thione and 3-(1,2-benzisothiazol- and isoxazol-5-yl)-4(3H)-pyrimidinone or thione herbicidal agents” (American Cyanmid Company, priority 1998, dated 2000)

Key:
[1] = tested on: Wheat, Winter, cv Riband, Triticum aestivum; test: Preemergence herbicidal evaluation, TRZAWR; assay type: in vivo; details: 0.2500 kg/ha
Summary of the method: (§1)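 Greenhouse preemergence test with soil-surface spray of compound (aqueous acetone, approx. 0.0156–0.500 kg per hectare) just after planting. Injury was scored visually on a 0–9 scale at 4–5 weeks.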

[2] = tested on: Rice, Tebonnet, Oryza sativa; test: Preemergence herbicidal evaluation, ORYSAT; assay type: in vivo, (L.) Tebonnet; details: 0.2500 kg/ha
Summary of the method: as §1

Galium, Galium aparine = test: Postemergence herbicidal evaluation, GALAP; assay type: in vivo; details: 0.2500 kg/ha
Summary of the method: (§2)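 Rates of about 0.0157–0.500 kg/ha were delivered through a 40 psi spray nozzle to seedlings grown around two weeks, using a 50/50 acetone/water vehicle with 0.5% TWEEN 20. A 0–9 visual score versus control followed 4–5 weeks later.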

[3] = tested on: SAGPY Arrowhead (Pygmaea); test: Postemergence weed control, flooded paddy (Table IV); assay type: in vivo, Sagittaria pygmaea; design: scale not given here
Summary of the method: (§3)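 Weeds 3 to 5 cm tall and rice seedlings at the 1.5 to 2.5 leaf stage were flooded, water held 1.5 to 3 cm above soil. Compounds in 50/50 v/v aqueous/acetone went into the flood water at about 0.0313 to 0.500 kg/ha. Injury was rated visually three to four weeks later.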

MOOVA Monochoria [4] = test: Preemergence weed control, flooded paddy (Table III); assay type: in vivo, Monochoria vaginalis; design: scale not given here
Summary of the method: (§4)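 Seeds or propagules sown in silt loam under 1.5 to 3 cm standing flood water; compound in 50/50 aqueous/acetone pipetted into the water at about 0.0313 to 0.500 kg/ha active ingredient. Greenhouse-held; herbicidal effect rated on a scale 3-4 weeks after treatment.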

ORYSAT Rice, Tebonnet [5] = test: Rice tolerance, flooded paddy (Table IV); assay type: in vivo, Oryza sativa; design: scale not given here; details: crop tolerance
Summary of the method: as §3

CYPIR Rice Flatsedge = test: Postemergence weed control, flooded paddy (Table IV); assay type: in vivo, Cyperus iria; design: scale not given here
Summary of the method: as §3

CYPSE Flatsedge [6] = test: as above; assay type: in vivo, Cyperus serotinus; design: scale not given here
Summary of the method: as §3

[7] = tested on: Sicklepod, Cassia obtusifolia; test: Postemergence herbicidal evaluation, CASOB; assay type: in vivo, L.; details: 0.2500 kg/ha
Summary of the method: as §2

MOOVA Monochoria [8] = test: Postemergence weed control, flooded paddy (Table IV); assay type: in vivo, Monochoria vaginalis; design: scale not given here
Summary of the method: as §3

[9] = tested on: Velvetleaf, Abutilon theophrasti; test: Postemergence herbicidal evaluation, ABUTH; assay type: in vivo, Medic.; details: 0.2500 kg/ha
Summary of the method: as §2

[10] = tested on: Ragweed, Common, Ambrosia artemisifolia; test: Preemergence herbicidal evaluation, AMBEL; assay type: in vivo, L.; details: 0.2500 kg/ha
Summary of the method: as §1

[11] = tested on: Morningglory Spp., Ipomoea Spp.; test: Postemergence herbicidal evaluation, IPOSS; assay type: in vivo; details: 0.2500 kg/ha
Summary of the method: as §2

CYPSE Flatsedge [12] = test: Preemergence weed control, flooded paddy (Table III); assay type: in vivo, Cyperus serotinus; design: scale not given here
Summary of the method: as §4

ORYSAT Rice, Tebonnet [13] = test: Tolerance of transplanted rice to post-transplant application (Table III); assay type: in vivo, Oryza sativa; design: scale not given here; details: crop tolerance
Summary of the method: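 Two ten-day-old Tebonnet seedlings were transplanted into flooded silt loam, with water kept 1.5–3 cm above the soil. Three days after transplanting, the flooded surface was treated with compound in 50/50 aqueous/acetone at about 0.0313–0.500 kg/ha. Injury was rated in the greenhouse 3–4 weeks after treatment.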

[14] = tested on: Foxtail, Green, Setaria viridis; test: Postemergence herbicidal evaluation, SETVI; assay type: in vivo, (L.) Beau; details: 0.2500 kg/ha
Summary of the method: as §2

For `COC(=O)COc1cc(C)ccc1-c1nsc2ccc(-n3c(=O)cc(C(F)(F)F)n(C)c3=O)cc12` [Compound 8, Methyl {{6-{5-[3,6-dihydro-3-methyl-4-(trifluoromethyl)-2,6-dioxo-1(2H)-pyrimidinyl]-1,2-benzisothiazol-3-yl}-m-tolyl}oxy}acetate], the “herbicide rating (0-9)” value [1] was 9.0, the “herbicide rating (0-9)” value [2] was 9.0 and the “herbicide rating (0-9)” value (Galium, Galium aparine) was 9.0. For the same molecule, the herbicidal effect rating ([3]; 0.1250 kg/ha) was 4.0, the herbicidal effect rating ([3]; 0.2500 kg/ha) was 9.0 and the herbicidal effect rating ([3]; 0.5000 kg/ha) was 9.0. For the same molecule, the herbicidal effect rating (MOOVA Monochoria [4]; 0.0313 kg/ha) was 9.0, the herbicidal effect rating (MOOVA Monochoria [4]; 0.0625 kg/ha) was 9.0 and the herbicidal effect rating (MOOVA Monochoria [4]; 0.1250 kg/ha) was 9.0. For the same molecule, the herbicidal effect rating (MOOVA Monochoria [4]; 0.2500 kg/ha) was 9.0, the herbicidal effect rating (MOOVA Monochoria [4]; 0.5000 kg/ha) was 9.0 and the herbicidal effect rating (ORYSAT Rice, Tebonnet [5]; 0.1250 kg/ha) was 6.0. For the same molecule, the herbicidal effect rating (ORYSAT Rice, Tebonnet [5]; 0.2500 kg/ha) was 8.0, the herbicidal effect rating (ORYSAT Rice, Tebonnet [5]; 0.5000 kg/ha) was 9.0 and the herbicidal effect rating (CYPIR Rice Flatsedge; 0.1250 kg/ha) was 9.0. It also gave a herbicidal effect rating (CYPIR Rice Flatsedge; 0.2500 kg/ha) of 9.0, a herbicidal effect rating (CYPIR Rice Flatsedge; 0.5000 kg/ha) of 9.0 and a herbicidal effect rating (CYPSE Flatsedge [6]; 0.1250 kg/ha) of 7.0. The herbicidal effect rating (CYPSE Flatsedge [6]; 0.2500 kg/ha) was 7.0, the herbicidal effect rating (CYPSE Flatsedge [6]; 0.5000 kg/ha) was 9.0 and the “herbicide rating (0-9)” value [7] was 9.0. It also gave a herbicidal effect rating (MOOVA Monochoria [8]; 0.1250 kg/ha) of 9.0, a herbicidal effect rating (MOOVA Monochoria [8]; 0.2500 kg/ha) of 9.0 and a herbicidal effect rating (MOOVA Monochoria [8]; 0.5000 kg/ha) of 9.0. For the same molecule, the “herbicide rating (0-9)” value [9] was 9.0, the “herbicide rating (0-9)” value [10] was 9.0 and the “herbicide rating (0-9)” value [11] was 9.0. It also gave a herbicidal effect rating (CYPSE Flatsedge [12]; 0.0313 kg/ha) of 4.0, a herbicidal effect rating (CYPSE Flatsedge [12]; 0.0625 kg/ha) of 9.0 and a herbicidal effect rating (CYPSE Flatsedge [12]; 0.1250 kg/ha) of 9.0. For the same molecule, the herbicidal effect rating (CYPSE Flatsedge [12]; 0.2500 kg/ha) was 9.0, the herbicidal effect rating (CYPSE Flatsedge [12]; 0.5000 kg/ha) was 9.0 and the herbicidal effect rating (ORYSAT Rice, Tebonnet [13]; 0.0313 kg/ha) was 7.0. The herbicidal effect rating (ORYSAT Rice, Tebonnet [13]; 0.0625 kg/ha) was 7.0, the herbicidal effect rating (ORYSAT Rice, Tebonnet [13]; 0.1250 kg/ha) was 9.0 and the herbicidal effect rating (ORYSAT Rice, Tebonnet [13]; 0.2500 kg/ha) was 9.0. For the same molecule, the herbicidal effect rating (ORYSAT Rice, Tebonnet [13]; 0.5000 kg/ha) was 9.0 and the “herbicide rating (0-9)” value [14] was 9.0.
